These results are taken from patent US11046680B1, “Heteroaryl-substituted triazoles as APJ receptor agonists” (priority 2016, dated 2021).

In the assay the target is human APJ receptor (Homo sapiens (Human), UniProt P35414). Put plainly: biochemical. The class given is biochemical. The following applies: [35S]GTPγS binding, CHO membranes expressing human APJ receptor; read-out: Activity hAPJ SPA EC50 IP. On the procedure:
The human APJ receptor was cloned by polymerase chain reaction and the gene encoding the receptor was subcloned in pFLAG-CMV™-3 expression vector (Sigma, Saint Louis, Mo. USA) in-house at Amgen. A GTPγS binding assay was performed on membranes prepared from CHO cells stably expressing human APJ receptor. The optimum experimental conditions for the concentrations of GDP, MgCl2, and NaCl in the assay buffer were initially determined. […] Incubation was at RT for 90 min and the microplate was read using a ViewLux™ ultra HTS Microplate Imager (PerkinElmer, Inc.).
For orientation: Binding of GTPγS marks nucleotide exchange on a G protein.

Sequence of human APJ receptor (P35414 whole entry): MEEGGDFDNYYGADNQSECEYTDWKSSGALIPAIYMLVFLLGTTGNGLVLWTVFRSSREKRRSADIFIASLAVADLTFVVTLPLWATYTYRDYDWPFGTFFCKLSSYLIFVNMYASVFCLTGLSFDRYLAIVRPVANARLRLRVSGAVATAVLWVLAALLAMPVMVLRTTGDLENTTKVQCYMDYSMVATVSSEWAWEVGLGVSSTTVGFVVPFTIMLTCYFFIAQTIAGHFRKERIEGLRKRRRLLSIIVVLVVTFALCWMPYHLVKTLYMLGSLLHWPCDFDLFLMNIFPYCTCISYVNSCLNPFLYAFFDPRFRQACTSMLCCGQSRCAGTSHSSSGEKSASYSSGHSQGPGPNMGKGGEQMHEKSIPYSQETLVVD

Take `COc1cccc(OC)c1-n1c(NS(=O)(=O)[C@H](C)[C@@H](OC)c2ncc(F)cn2)nnc1-c1ccn(C)n1` (single isomer, unassigned) [Example 118.0, (1S,2R)-N-(4-(2,6-dimethoxyphenyl)-5-(1-methyl-1H-pyrazol-3-yl)-4H-1,2,4-triazol-3-yl)-1-(5-fluoropyrimidin-2-yl)-1-methoxypropane-2-sulfonamide or (1R,2S)-N-(4-(2,6-dimethoxyphenyl)-5-(1-methyl-1H-pyrazol-3-yl)-4H-1,2,4-triazol-3-yl)-1-(5-fluoropyrimidin-2-yl)-1-methoxypropane-2-sulfonamide]: the EC50 (commonly the concentration at which the effect is half-maximal) was 100 nM.

With `COc1cccc(OC)c1-n1c(NS(=O)(=O)[C@@H](C)[C@@H](C)c2ncc(F)cn2)nnc1-c1nc(C)cs1` (single isomer, unassigned) [Example 119.0], the EC50 worked out at 4.6 nM.

With `COc1cccc(OC)c1-n1c(NS(=O)(=O)[C@@H](C)[C@H](C)c2ncc(F)cn2)nnc1-c1nc(C)cs1` (single isomer, unassigned) [Example 120.0], the EC50 was 0.17 nM.

Consider `COc1cccc(OC)c1-n1c(NS(=O)(=O)[C@H](C)[C@@H](C)c2ncc(F)cn2)nnc1-c1nc(C)cs1` (single isomer, unassigned) [Example 121.0], for which the EC50 turned out to be 12 nM.

For the molecule `COc1cccc(OC)c1-n1c(NS(=O)(=O)[C@H](C)Cc2ncc(F)cn2)nnc1-c1nc(C(C)C)cs1` (single isomer, unassigned) [Example 157.0, (R)-N-(4-(2,6-dimethoxyphenyl)-5-(4-isopropylthiazol-2-yl)-4H-1,2,4-triazol-3-yl)-1-(5-fluoropyrimidin-2-yl)propane-2-sulfonamide or (S)-N-(4-(2,6-dimethoxyphenyl)-5-(4-isopropylthiazol-2-yl)-4H-1,2,4-triazol-3-yl)-1-(5-fluoropyrimidin-2-yl)propane-2-sulfonamide], the EC50 came out at 58 nM.

As to `COc1cccc(OC)c1-n1c(NS(=O)(=O)[C@H](C)Cc2ncc(F)cn2)nnc1-c1nc(C(C)C)cs1` (single isomer, unassigned) [Example 158.0, (R)-N-(4-(2,6-dimethoxyphenyl)-5-(4-isopropylthiazol-2-yl)-4H-1,2,4-triazol-3-yl)-1-(5-fluoropyrimidin-2-yl)propane-2-sulfonamide or (S)-N-(4-(2,6-dimethoxyphenyl)-5-(4-isopropylthiazol-2-yl)-4H-1,2,4-triazol-3-yl)-1-(5-fluoropyrimidin-2-yl)propane-2-sulfonamide], the EC50 turned out to be 4.1 nM.

`COc1cccc(OC)c1-n1c(NS(=O)(=O)[C@H](C)Cc2ncc(F)cn2)nnc1-c1nc(C2CC2)cs1` (single isomer, unassigned) [Example 159.0, (R)-N-(5-(4-cyclopropylthiazol-2-yl)-4-(2,6-dimethoxyphenyl)-4H-1,2,4-triazol-3-yl)-1-(5-fluoropyrimidin-2-yl)propane-2-sulfonamide or (S)-N-(5-(4-cyclopropylthiazol-2-yl)-4-(2,6-dimethoxyphenyl)-4H-1,2,4-triazol-3-yl)-1-(5-fluoropyrimidin-2-yl)propane-2-sulfonamide]: the EC50 worked out at 0.61 nM.

In the case of `COc1cccc(OC)c1-n1c(NS(=O)(=O)[C@H](C)Cc2ncc(F)cn2)nnc1-c1nc(C2CC2)cs1` (single isomer, unassigned) [Example 160.0, (R)-N-(5-(4-cyclopropylthiazol-2-yl)-4-(2,6-dimethoxyphenyl)-4H-1,2,4-triazol-3-yl)-1-(5-fluoropyrimidin-2-yl)propane-2-sulfonamide or (S)-N-(5-(4-cyclopropylthiazol-2-yl)-4-(2,6-dimethoxyphenyl)-4H-1,2,4-triazol-3-yl)-1-(5-fluoropyrimidin-2-yl)propane-2-sulfonamide], the EC50 was 2 nM.

On to `COc1cccc(OC)c1-n1c(NS(=O)(=O)[C@H](C)[C@H](C)c2ncc(F)cn2)nnc1-c1nc(C)cs1` (single isomer, unassigned) [Example 165.0], for which the EC50 came out at 110 nM.

For `C=CCO[C@@H](c1ncc(F)cn1)[C@@H](C)S(=O)(=O)Nc1nnc(-c2nc(C)cs2)n1-c1c(OC)cccc1OC` (single isomer, unassigned) [Example 168.0, (1S,2R)-1-(Allyloxy)-N-(4-(2,6-dimethoxyphenyl)-5-(4-methylthiazol-2-yl)-4H-1,2,4-triazol-3-yl)-1-(5-fluoropyrimidin-2-yl)propane-2-sulfonamide or (1R,2S)-1-(allyloxy)-N-(4-(2,6-dimethoxyphenyl)-5-(4-methylthiazol-2-yl)-4H-1,2,4-triazol-3-yl)-1-(5-fluoropyrimidin-2-yl)propane-2-sulfonamide], the EC50 is 30 nM.

`C=CCO[C@@H](c1ncc(F)cn1)[C@@H](C)S(=O)(=O)Nc1nnc(-c2nc(C)cs2)n1-c1c(OC)cccc1OC` (single isomer, unassigned) [Example 169.0, (1S,2R)-1-(Allyloxy)-N-(4-(2,6-dimethoxyphenyl)-5-(4-methylthiazol-2-yl)-4H-1,2,4-triazol-3-yl)-1-(5-fluoropyrimidin-2-yl)propane-2-sulfonamide or (1R,2S)-1-(allyloxy)-N-(4-(2,6-dimethoxyphenyl)-5-(4-methylthiazol-2-yl)-4H-1,2,4-triazol-3-yl)-1-(5-fluoropyrimidin-2-yl)propane-2-sulfonamide]: the EC50 amounted to 0.46 nM.

Consider `COc1cncc(-c2nnc(NS(=O)(=O)[C@@H](C)Cc3ncc(F)cn3)n2-c2c(OC)cccc2OC)n1` (single isomer, unassigned) [Example 188.0, (2S)-N-(4-(2,6-dimethoxyphenyl)-5-(6-methoxy-2-pyrazinyl)-4H-1,2,4-triazol-3-yl)-1-(5-fluoro-2-pyrimidinyl)-2-propanesulfonamide or (2R)-N-(4-(2,6-dimethoxyphenyl)-5-(6-methoxy-2-pyrazinyl)-4H-1,2,4-triazol-3-yl)-1-(5-fluoro-2-pyrimidinyl)-2-propanesulfonamide], for which the concentration for a half-maximal effect (EC50) was 15 nM.

Take `COc1cccc(OC)c1-n1c(NS(=O)(=O)[C@@H]2C[C@H](O)CN(c3ncc(F)cn3)C2)nnc1-c1nc(C)cs1` (single isomer, unassigned) [Example 254.0, (3R,5S)-N-(4-(2,6-dimethoxyphenyl)-5-(4-methyl-1,3-thiazol-2-yl)-4H-1,2,4-triazol-3-yl)-1-(5-fluoro-2-pyrimidinyl)-5-hydroxy-3-piperidinesulfonamide or (3S,5R)-N-(4-(2,6-dimethoxyphenyl)-5-(4-methyl-1,3-thiazol-2-yl)-4H-1,2,4-triazol-3-yl)-1-(5-fluoro-2-pyrimidinyl)-5-hydroxy-3-piperidinesulfonamide]: the EC50 was 1.2 nM.

As for `COc1cccc(OC)c1-n1c(NS(=O)(=O)[C@@H]2C[C@@H](O)CN(c3ncc(F)cn3)C2)nnc1-c1nc(C)cs1` (single isomer, unassigned) [Example 257.0, (3R,5R)-N-(4-(2,6-dimethoxyphenyl)-5-(4-methyl-1,3-thiazol-2-yl)-4H-1,2,4-triazol-3-yl)-1-(5-fluoro-2-pyrimidinyl)-5-hydroxy-3-piperidinesulfonamide or (3S,5S)-N-(4-(2,6-dimethoxyphenyl)-5-(4-methyl-1,3-thiazol-2-yl)-4H-1,2,4-triazol-3-yl)-1-(5-fluoro-2-pyrimidinyl)-5-hydroxy-3-piperidinesulfonamide], the EC50 is 3.9 nM.

As to `COc1cccc(OC)c1-n1c(NS(=O)(=O)[C@@H]2CCCN(c3ncc(F)cn3)C2)nnc1-c1ccn(C)n1` (single isomer, unassigned) [Example 261.0, (3R)-N-(4-(2,6-dimethoxyphenyl)-5-(1-methyl-1H-pyrazol-3-yl)-4H-1,2,4-triazol-3-yl)-1-(5-fluoro-2-pyrimidinyl)-3-piperidinesulfonamide or (3S)-N-(4-(2,6-dimethoxyphenyl)-5-(1-methyl-1H-pyrazol-3-yl)-4H-1,2,4-triazol-3-yl)-1-(5-fluoro-2-pyrimidinyl)-3-piperidinesulfonamide], the EC50 stood at 190 nM.

`COc1cccc(OC)c1-n1c(NS(=O)(=O)[C@@H]2CCCN(c3ncc(F)cn3)C2)nnc1-c1ccn(C)n1` (single isomer, unassigned) [Example 262.0, (3R)-N-(4-(2,6-dimethoxyphenyl)-5-(1-methyl-1H-pyrazol-3-yl)-4H-1,2,4-triazol-3-yl)-1-(5-fluoro-2-pyrimidinyl)-3-piperidinesulfonamide or (3S)-N-(4-(2,6-dimethoxyphenyl)-5-(1-methyl-1H-pyrazol-3-yl)-4H-1,2,4-triazol-3-yl)-1-(5-fluoro-2-pyrimidinyl)-3-piperidinesulfonamide]: the EC50 was 4.8 nM.

With `COc1cccc(OC)c1-n1c(NS(=O)(=O)[C@H](C)[C@@H](OC)c2ccc(C#N)cc2C#N)nnc1-c1ccn(C)n1` (single isomer, unassigned) [Example 265.0, (1S,2R)-1-(2,4-dicyanophenyl)-N-(4-(2,6-dimethoxyphenyl)-5-(1-methyl-1H-pyrazol-3-yl)-4H-1,2,4-triazol-3-yl)-1-methoxy-2-propanesulfonamide or (1R,2S)-1-(2,4-dicyanophenyl)-N-(4-(2,6-dimethoxyphenyl)-5-(1-methyl-1H-pyrazol-3-yl)-4H-1,2,4-triazol-3-yl)-1-methoxy-2-propanesulfonamide], the EC50 amounted to 70 nM.

For `COc1cccc(OC)c1-n1c(NS(=O)(=O)[C@H](C)[C@@H](OC)c2ccc(C#N)cc2C#N)nnc1-c1ccn(C)n1` (single isomer, unassigned) [Example 266.0, (1S,2R)-1-(2,4-dicyanophenyl)-N-(4-(2,6-dimethoxyphenyl)-5-(1-methyl-1H-pyrazol-3-yl)-4H-1,2,4-triazol-3-yl)-1-methoxy-2-propanesulfonamide or (1R,2S)-1-(2,4-dicyanophenyl)-N-(4-(2,6-dimethoxyphenyl)-5-(1-methyl-H-pyrazol-3-yl)-4H-1,2,4-triazol-3-yl)-1-methoxy-2-propanesulfonamide], the EC50 worked out at 0.4 nM.
